Activity calls are given as the source filed them. The rule behind the calls is not given here.
Key:
[1] = molecular target: T1, Ubiquitin carboxyl-terminal hydrolase 28 (Homo sapiens) (UniProt Q96RU2); assay: Inhibition of USP28 (unknown origin) at 20 uM
T1 sequence (whole entry): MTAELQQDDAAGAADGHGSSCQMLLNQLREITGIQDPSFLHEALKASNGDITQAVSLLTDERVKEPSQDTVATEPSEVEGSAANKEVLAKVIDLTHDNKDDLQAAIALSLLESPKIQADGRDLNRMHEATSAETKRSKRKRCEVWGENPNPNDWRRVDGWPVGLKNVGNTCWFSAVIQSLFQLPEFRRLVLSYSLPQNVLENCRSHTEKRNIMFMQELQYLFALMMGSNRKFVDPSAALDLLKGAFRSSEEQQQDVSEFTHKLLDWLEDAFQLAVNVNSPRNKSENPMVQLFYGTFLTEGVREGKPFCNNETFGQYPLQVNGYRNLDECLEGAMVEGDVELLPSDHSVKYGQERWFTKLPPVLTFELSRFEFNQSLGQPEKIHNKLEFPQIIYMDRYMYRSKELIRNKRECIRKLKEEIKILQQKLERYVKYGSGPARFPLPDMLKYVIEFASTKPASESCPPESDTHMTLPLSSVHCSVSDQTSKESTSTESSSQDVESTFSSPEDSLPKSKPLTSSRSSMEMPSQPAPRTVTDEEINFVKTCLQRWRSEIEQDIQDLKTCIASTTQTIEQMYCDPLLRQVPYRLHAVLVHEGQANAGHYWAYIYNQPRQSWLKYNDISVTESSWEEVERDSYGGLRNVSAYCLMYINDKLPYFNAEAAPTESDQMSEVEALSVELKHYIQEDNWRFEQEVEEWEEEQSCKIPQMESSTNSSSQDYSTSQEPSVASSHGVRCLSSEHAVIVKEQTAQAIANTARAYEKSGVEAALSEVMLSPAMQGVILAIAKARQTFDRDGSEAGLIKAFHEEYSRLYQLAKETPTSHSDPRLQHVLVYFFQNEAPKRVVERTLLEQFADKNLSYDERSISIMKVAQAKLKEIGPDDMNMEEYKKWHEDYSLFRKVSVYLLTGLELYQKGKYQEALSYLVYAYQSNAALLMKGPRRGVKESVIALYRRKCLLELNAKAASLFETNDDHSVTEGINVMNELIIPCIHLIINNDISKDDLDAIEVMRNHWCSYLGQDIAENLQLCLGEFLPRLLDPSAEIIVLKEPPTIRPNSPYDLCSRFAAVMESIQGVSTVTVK

[2] = molecular target: T2, Ubiquitin carboxyl-terminal hydrolase isozyme L5 (Homo sapiens) (UniProt Q9Y5K5); assay: Inhibition of UCH-L5 (unknown origin) at 20 uM
T2 sequence (whole entry): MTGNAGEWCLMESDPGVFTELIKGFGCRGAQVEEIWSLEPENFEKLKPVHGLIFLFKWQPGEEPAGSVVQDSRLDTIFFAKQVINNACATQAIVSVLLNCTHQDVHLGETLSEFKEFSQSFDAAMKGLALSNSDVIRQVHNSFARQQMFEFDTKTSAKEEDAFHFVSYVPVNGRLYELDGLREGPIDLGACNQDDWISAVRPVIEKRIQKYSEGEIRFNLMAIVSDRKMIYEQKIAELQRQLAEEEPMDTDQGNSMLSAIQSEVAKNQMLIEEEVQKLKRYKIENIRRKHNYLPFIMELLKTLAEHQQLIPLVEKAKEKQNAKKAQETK

inhibition [1]: inactive
inhibition [2]: inactive
Compound: COC(=O)c1ccc(CN2CCC(O)(Cn3cnc4c(-c5ccc(CN)cc5)n(C)nc4c3=O)CC2)c(Cl)c1.O=C(O)C(F)(F)F.O=C(O)C(F)(F)F

From ChEMBL document CHEMBL4680269, “N-benzylpiperidinol derivatives as novel USP7 inhibitors: Structure-activity relationships and X-ray crystallographic studies” (Eur J Med Chem, 2020)
